Legend:
removed guinea pig heart = assay: Cardiovascular activity measured according to Langedorff's method by using the removed guinea pig heart; details: Concentration 10^-4 g/ml; for Heart Movements: Amplitude / Heart Movements: Tonus: arrow symbols
Experimental: (§1) For administration of the compounds of this invention into the human body, it is recommended to give them at the dose of 10 to 500 mg/day for internal administration and 1 to 50 mg/day for intravenous aministration. The compounds can be administered as such or in combination with a pharmaceutical carrier conventionally employed in cardiovascular and like preparations.

LD50 on mice = details: in vivo, ip; mouse
Experimental: as §1

| SMILES | Coronary perfusion pressure (Δ%) (removed guinea pig heart) | Heart rate (Δ%) (removed guinea pig heart) | Heart Movements: Amplitude (removed guinea pig heart) | Heart Movements: Tonus (removed guinea pig heart) | LD50 (LD50 on mice) [mg/kg] |
| --- | --- | --- | --- | --- | --- |
| COc1ccc(CN2CCN(CCO)CC2)c(OC)c1OC [Example 10] | -4.4 Δ% | -10.7 Δ% | .dwnarw. | .dwnarw. | 567 |
| COc1ccc(CN2CCN(CC(O)c3ccccc3)CC2)c(OC)c1OC (centres unmarked) [Example 13] | -16.0 Δ% | -54.5 Δ% | .dwnarw. | → | 106 |
| COc1ccc(CN2CCN(CC(O)CO)CC2)c(OC)c1OC (centres unmarked) [Example 12] | – | -16.1 Δ% | .dwnarw. | → | 724 |
| COc1ccc(CN2CCN(c3nc(N)nc(N)n3)CC2)c(OC)c1OC [Example 3] | 4.4 Δ% | -21.9 Δ% | .dwnarw. | → | – |
| COc1ccc(CN2CCN(CCCCN3CCN(Cc4ccc(OC)c(OC)c4OC)CC3)CC2)c(OC)c1OC [Example 7] | -18.8 Δ% | -37.5 Δ% | .dwnarw. | → | 239 |
| COc1ccc(CN2CCN(CCCCCCCCN3CCN(Cc4ccc(OC)c(OC)c4OC)CC3)CC2)c(OC)c1OC [Example 9] | -10.0 Δ% | -28.6 Δ% | .dwnarw. | .dwnarw. | – |
| COc1ccc(CN2CCN(CC(O)COc3ccccc3)CC2)c(OC)c1OC (centres unmarked) [Example 14] | -20.0 Δ% | -48.7 Δ% | .dwnarw. | .dwnarw. | 142 |
| COc1ccc(CN2CCN(CCCCCCN3CCN(Cc4ccc(OC)c(OC)c4OC)CC3)CC2)c(OC)c1OC [Example 8] | -19.2 Δ% | -19.1 Δ% | .dwnarw. | → | 84 |
| COc1ccc(CN2CCN(CCN3CCOCC3)CC2)c(OC)c1OC [Example 4] | -2.1 Δ% | -8.6 Δ% | .uparw. | → | 567 |
| COc1ccc(CN2CCN(CCN3CCN(Cc4ccc(OC)c(OC)c4OC)CC3)CC2)c(OC)c1OC [Example 6] | -3.7 Δ% | -11.7 Δ% | .dwnarw. | → | – |
| COc1ccc(CN2CCN(CC(C)O)CC2)c(OC)c1OC (centres unmarked) [Example 11] | -11.1 Δ% | -49.4 Δ% | .dwnarw. | → | 336 |
| COc1ccc(CN2CCN(CC=C(C)C)CC2)c(OC)c1OC [Example 1] | 5.7 Δ% | -18.2 Δ% | .dwnarw. | → | – |
| COc1ccc(CN2CCN(CC=Cc3ccccc3)CC2)c(OC)c1OC [Example 2] | -11.1 Δ% | -60.3 Δ% | .dwnarw. | → | – |

— US4100285A, “N-substituted trialkoxybenzyl piperazine derivatives” (Nippon Shinyaku Co., Ltd., priority 1976, dated 1978)
